Assay: Solubility of CBD in water, HFIP and acetic acid-water solutions
Format: physicochemical
From the text: Fast dissolving particles were produced using edible gelatin nanoscale particles created from acetic acid-water based solutions. A solution was created, and the electrospray process was repeated to see if reproducible results were obtainable.
In order to create CBD particles in a gelatin-based solution, the solubility of CBD in different acetic acid-water based solutions was explored.

C=C(C)[C@@H]1CCC(C)=C[C@H]1c1c(O)cc(CCCCC)cc1O [CBD, Cannabidiol]
solubility in acetic acid-water solution (30% v/v AA(aq.)): Emulsions were formed | solubility in acetic acid-water solution (40% v/v AA(aq.)): Emulsions were formed | solubility in acetic acid-water solution (50% v/v AA(aq.) and higher concentrations): clear, homogeneous and well mixed soluble CBD solution | solubility in HFIP (HFIP): soluble | solubility in water (water): not able to dissolve in water
